Experimental data from US20230126447A1, “OCULAR DRUG DEPOT FOR COMPLEMENT-MEDIATED DISORDERS” (priority 2020, published 2023).

Tests used:
AP activity = assay: Wieslab assay (AP activity in vitro); format: biochemical
[1] = In vitro binding to synthetic melanin; conditions: synthetic melanin 50 μg/mL, PBS, 37° C., 1 hour
Protocol: […] The melanin solution was stored in the dark at 37° C. until use.
Immediately after the assay, samples were added to an equal volume of warm PBS, aliquots (3 μL each) were removed, added to 100 μL of acetonitrile containing carbutamide as internal standard, and then diluted with water (197 μL). These time-zero samples, prepared in PBS only, were also used as calibration standards.
The assay plates containing samples with and without melanin were incubated in the dark with shaking at 37° C. for 1 hour. Following incubation, the samples were centrifuged for 15 minutes at approximately 4000 rpm at 37° C. to sediment the melanin. Sample supernatant (3 μL) was added to 100 μL of acetonitrile containing the internal standard and then diluted with water (197 μL).
The column was set to a temperature of 55° C. […]
Analytes and internal standards were detected using an Applied Biosystems Sciex API-5500 triple quadrupole mass spectrometer with Agilent 1260 Infinity Binary Pump and Apricot Designs ADDA High-Speed Dual Arm Autosampling System. The instrument was equipped with an electrospray ionization source (600° C.) operated in the positive ion mode. Analytes and internal standards for all samples were monitored in the multiple-reaction-monitoring scan mode.

Q: With `CC(=O)c1nn(CC(=O)N2C[C@H](F)C[C@H]2C(=O)Nc2cccc(Br)n2)c2ccc(-c3cnc(C)nc3)cc12` [Compound 1, (2S,4R)-1-(2-(3-Acetyl-5-(2-methylpyrimidin-5-yl)-1H-indazol-1-yl)acetyl)-N-(6-bromopyridin-2-yl)-4-fluoropyrrolidine-2-carboxamide] as the compound, how does the IC50 (AP activity) read?
A: 26 nM

Q: What about the “Bmax (binding capacity)” value [1] of the same compound?
A: 127 nmol/mg melanin
